Test results published in patent publication US9695155B2, “Herbicidal substituted pyrimidinyloxy benzene compounds” (E. I. DU PONT DE NEMOURS AND COMPANY, priority 2013, dated 2017).

How the values were obtained:
ragweed = test: Test A postemergence; type: in vivo, Ambrosia elatior
Outline: (§1)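 Pre- and postemergence greenhouse screen. Soil: loam + sand. Spray carrier: solvent mixture, non-phytotoxic, with surfactant. Post timing at 1–2 leaves, height 2–10 cm. Readout: visual injury on a 0–100 scale roughly 10 days after application, untreated plants as reference.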

blackgrass = test: Test A postemergence; type: in vivo, Alopecurus myosuroides
Outline: as §1

corn = test: Test E preemergence; type: in vivo, Zea mays; settings: for Corn plant response rating: scale 0 to 100 (0 no effect, 100 complete control); for Plant response rating, Corn: 125 g ai/ha, scale 0 to 100, 0 no effect, 100 complete control
Outline: (§2)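 Compound in a non-phytotoxic solvent mixture with surfactant was applied preemergence to seeds in silt loam soil, or postemergence to plants 2 to 18 cm tall grown in peat-based potting medium. Plants were kept in a greenhouse for 14 to 21 days, then rated visually against untreated controls on a 0 (no effect) to 100 (complete control) scale.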

velvetleaf = test: Test E preemergence; type: in vivo, Abutilon theophrasti; settings: for Velvetleaf plant response rating: scale 0 to 100 (0 no effect, 100 complete control); for Plant response rating, Velvetleaf: 125 g ai/ha, scale 0 to 100, 0 no effect, 100 complete control
Outline: as §2

lambsquarters = test: Test E preemergence; type: in vivo, Chenopodium album; settings: for Lambsquarters plant response rating: scale 0 to 100 (0 no effect, 100 complete control); for Plant response rating, Lambsquarters: 125 g ai/ha, scale 0 to 100, 0 no effect, 100 complete control
Outline: as §2

wild poinsettia = test: Test E preemergence; type: in vivo, Euphorbia heterophylla; settings: for Poinsettia, Wild plant response rating: scale 0 to 100 (0 no effect, 100 complete control); for Plant response rating, Poinsettia, Wild: 125 g ai/ha, scale 0 to 100, 0 no effect, 100 complete control
Outline: as §2

large (Lg) crabgrass = test: Test E preemergence; type: in vivo, Digitaria sanguinalis; settings: for Crabgrass, Large plant response rating: scale 0 to 100 (0 no effect, 100 complete control); for Plant response rating, Crabgrass, Large: 125 g ai/ha, scale 0 to 100, 0 no effect, 100 complete control
Outline: as §2

Brazilian crabgrass = test: Test E preemergence; type: in vivo, Digitaria horizontalis; settings: for Crabgrass, Brazil plant response rating: scale 0 to 100 (0 no effect, 100 complete control); for Plant response rating, Crabgrass, Brazil: 125 g ai/ha, scale 0 to 100, 0 no effect, 100 complete control
Outline: as §2

green foxtail = test: Test E preemergence; type: in vivo, Setaria viridis; settings: for Foxtail, Green plant response rating: scale 0 to 100 (0 no effect, 100 complete control); for Plant response rating, Foxtail, Green: 125 g ai/ha, scale 0 to 100, 0 no effect, 100 complete control
Outline: as §2

sandbur = test: Test E preemergence; type: in vivo, Cenchrus echinatus; settings: for Sandbur plant response rating: scale 0 to 100 (0 no effect, 100 complete control); for Plant response rating, Sandbur: 125 g ai/ha, scale 0 to 100, 0 no effect, 100 complete control
Outline: as §2

kochia = test: Test E preemergence; type: in vivo, Kochia scoparia; settings: for Kochia plant response rating: scale 0 to 100 (0 no effect, 100 complete control); for Plant response rating, Kochia: 125 g ai/ha, scale 0 to 100, 0 no effect, 100 complete control
Outline: as §2

yellow nutsedge = test: Test E preemergence; type: in vivo, Cyperus esculentus; settings: for Nutsedge, Yellow plant response rating: scale 0 to 100 (0 no effect, 100 complete control); for Plant response rating, Nutsedge, Yellow: 125 g ai/ha, scale 0 to 100, 0 no effect, 100 complete control
Outline: as §2

[1] = 31 g ai/ha, 0 to 100 scale, 0 no effect, 100 complete control
[2] = 125 g ai/ha, 0 to 100 scale, 0 no effect, 100 complete control
[3] = 125 g ai/ha, 0 to 100 scale where 0 is no effect and 100 is complete control
[4] = 500 g ai/ha, 0 to 100 scale where 0 is no effect and 100 is complete control

FCc1cccc(Oc2ncc(Cl)cn2)c1-n1cc(Cl)cn1 [Compound 250]
Plant response rating, Ragweed (ragweed; [1]): 50 | Plant response rating, Ragweed (ragweed; [2]): 100 | Plant response rating, Blackgrass (blackgrass; [1]): 70 | Plant response rating, Blackgrass (blackgrass; [2]): 100 | Corn plant response rating (corn; 16 g ai/ha): 0 | Corn plant response rating (corn; 31 g ai/ha): 0 | Corn plant response rating (corn; 62 g ai/ha): 0 | Plant response rating, Corn (corn): 20 | Velvetleaf plant response rating (velvetleaf; 31 g ai/ha): 75 | Velvetleaf plant response rating (velvetleaf; 62 g ai/ha): 75 | Plant response rating, Velvetleaf (velvetleaf): 100 | Lambsquarters plant response rating (lambsquarters; 31 g ai/ha): 0 | Lambsquarters plant response rating (lambsquarters; 62 g ai/ha): 0 | Plant response rating, Lambsquarters (lambsquarters): 100 | Poinsettia, Wild plant response rating (wild poinsettia; 31 g ai/ha): 0 | Poinsettia, Wild plant response rating (wild poinsettia; 62 g ai/ha): 0 | Plant response rating, Poinsettia, Wild (wild poinsettia): 20 | Crabgrass, Large plant response rating (large (Lg) crabgrass; 16 g ai/ha): 0 | Crabgrass, Large plant response rating (large (Lg) crabgrass; 31 g ai/ha): 0 | Crabgrass, Large plant response rating (large (Lg) crabgrass; 62 g ai/ha): 0 | Plant response rating, Crabgrass, Large (large (Lg) crabgrass): 100 | Crabgrass, Brazil plant response rating (Brazilian crabgrass; 16 g ai/ha): 0 | Crabgrass, Brazil plant response rating (Brazilian crabgrass; 31 g ai/ha): 0 | Crabgrass, Brazil plant response rating (Brazilian crabgrass; 62 g ai/ha): 5 | Plant response rating, Crabgrass, Brazil (Brazilian crabgrass): 98 | Foxtail, Green plant response rating (green foxtail; 16 g ai/ha): 0 | Foxtail, Green plant response rating (green foxtail; 31 g ai/ha): 0 | Foxtail, Green plant response rating (green foxtail; 62 g ai/ha): 0 | Plant response rating, Foxtail, Green (green foxtail): 90 | Sandbur plant response rating (sandbur; 31 g ai/ha): 0 | Sandbur plant response rating (sandbur; 62 g ai/ha): 0 | Plant response rating, Sandbur (sandbur): 25 | Kochia plant response rating (kochia; 31 g ai/ha): 0 | Kochia plant response rating (kochia; 62 g ai/ha): 0 | Plant response rating, Kochia (kochia): 98 | Nutsedge, Yellow plant response rating (yellow nutsedge; 31 g ai/ha): 0 | Nutsedge, Yellow plant response rating (yellow nutsedge; 62 g ai/ha): 0 | Plant response rating, Nutsedge, Yellow (yellow nutsedge): 40

N#Cc1cccc(Oc2ncc(Br)cn2)c1-n1cc(I)cn1 [Compound 88]
Plant response rating, Ragweed (ragweed; [3]): 10 | Plant response rating, Ragweed (ragweed; [4]): 30 | Plant response rating, Blackgrass (blackgrass; [3]): 70 | Plant response rating, Blackgrass (blackgrass; [4]): 100 | Corn plant response rating (corn; 16 g ai/ha): 0 | Corn plant response rating (corn; 31 g ai/ha): 0 | Corn plant response rating (corn; 62 g ai/ha): 35 | Plant response rating, Corn (corn): 35 | Velvetleaf plant response rating (velvetleaf; 16 g ai/ha): 0 | Velvetleaf plant response rating (velvetleaf; 31 g ai/ha): 0 | Velvetleaf plant response rating (velvetleaf; 62 g ai/ha): 20 | Plant response rating, Velvetleaf (velvetleaf): 65 | Lambsquarters plant response rating (lambsquarters; 16 g ai/ha): 75 | Lambsquarters plant response rating (lambsquarters; 31 g ai/ha): 50 | Lambsquarters plant response rating (lambsquarters; 62 g ai/ha): 100 | Plant response rating, Lambsquarters (lambsquarters): 100 | Poinsettia, Wild plant response rating (wild poinsettia; 16 g ai/ha): 0 | Poinsettia, Wild plant response rating (wild poinsettia; 31 g ai/ha): 0 | Poinsettia, Wild plant response rating (wild poinsettia; 62 g ai/ha): 0 | Plant response rating, Poinsettia, Wild (wild poinsettia): 0 | Crabgrass, Large plant response rating (large (Lg) crabgrass; 16 g ai/ha): 0 | Crabgrass, Large plant response rating (large (Lg) crabgrass; 31 g ai/ha): 35 | Crabgrass, Large plant response rating (large (Lg) crabgrass; 62 g ai/ha): 65 | Plant response rating, Crabgrass, Large (large (Lg) crabgrass): 95 | Crabgrass, Brazil plant response rating (Brazilian crabgrass; 16 g ai/ha): 0 | Crabgrass, Brazil plant response rating (Brazilian crabgrass; 31 g ai/ha): 0 | Crabgrass, Brazil plant response rating (Brazilian crabgrass; 62 g ai/ha): 60 | Plant response rating, Crabgrass, Brazil (Brazilian crabgrass): 60 | Foxtail, Green plant response rating (green foxtail; 16 g ai/ha): 0 | Foxtail, Green plant response rating (green foxtail; 31 g ai/ha): 0 | Foxtail, Green plant response rating (green foxtail; 62 g ai/ha): 0 | Plant response rating, Foxtail, Green (green foxtail): 35 | Sandbur plant response rating (sandbur; 16 g ai/ha): 0 | Sandbur plant response rating (sandbur; 31 g ai/ha): 0 | Sandbur plant response rating (sandbur; 62 g ai/ha): 0 | Plant response rating, Sandbur (sandbur): 10 | Kochia plant response rating (kochia; 16 g ai/ha): 0 | Kochia plant response rating (kochia; 31 g ai/ha): 0 | Kochia plant response rating (kochia; 62 g ai/ha): 35 | Plant response rating, Kochia (kochia): 50 | Nutsedge, Yellow plant response rating (yellow nutsedge; 16 g ai/ha): 0 | Nutsedge, Yellow plant response rating (yellow nutsedge; 31 g ai/ha): 0 | Nutsedge, Yellow plant response rating (yellow nutsedge; 62 g ai/ha): 0 | Plant response rating, Nutsedge, Yellow (yellow nutsedge): 0

N#Cc1cccc(Oc2ncc(F)cn2)c1-n1cc(I)cn1 [Compound 86]
Plant response rating, Ragweed (ragweed; [3]): 90 | Plant response rating, Ragweed (ragweed; [4]): 100 | Plant response rating, Blackgrass (blackgrass; [3]): 90 | Plant response rating, Blackgrass (blackgrass; [4]): 100 | Corn plant response rating (corn; 16 g ai/ha): 0 | Corn plant response rating (corn; 31 g ai/ha): 0 | Corn plant response rating (corn; 62 g ai/ha): 0 | Plant response rating, Corn (corn): 5 | Velvetleaf plant response rating (velvetleaf; 16 g ai/ha): 0 | Velvetleaf plant response rating (velvetleaf; 31 g ai/ha): 0 | Velvetleaf plant response rating (velvetleaf; 62 g ai/ha): 50 | Plant response rating, Velvetleaf (velvetleaf): 80 | Lambsquarters plant response rating (lambsquarters; 16 g ai/ha): 0 | Lambsquarters plant response rating (lambsquarters; 31 g ai/ha): 65 | Lambsquarters plant response rating (lambsquarters; 62 g ai/ha): 100 | Plant response rating, Lambsquarters (lambsquarters): 100 | Poinsettia, Wild plant response rating (wild poinsettia; 16 g ai/ha): 0 | Poinsettia, Wild plant response rating (wild poinsettia; 31 g ai/ha): 10 | Poinsettia, Wild plant response rating (wild poinsettia; 62 g ai/ha): 20 | Plant response rating, Poinsettia, Wild (wild poinsettia): 65 | Crabgrass, Large plant response rating (large (Lg) crabgrass; 16 g ai/ha): 0 | Crabgrass, Large plant response rating (large (Lg) crabgrass; 31 g ai/ha): 0 | Crabgrass, Large plant response rating (large (Lg) crabgrass; 62 g ai/ha): 95 | Plant response rating, Crabgrass, Large (large (Lg) crabgrass): 98 | Crabgrass, Brazil plant response rating (Brazilian crabgrass; 16 g ai/ha): 0 | Crabgrass, Brazil plant response rating (Brazilian crabgrass; 31 g ai/ha): 0 | Crabgrass, Brazil plant response rating (Brazilian crabgrass; 62 g ai/ha): 75 | Plant response rating, Crabgrass, Brazil (Brazilian crabgrass): 95 | Foxtail, Green plant response rating (green foxtail; 16 g ai/ha): 0 | Foxtail, Green plant response rating (green foxtail; 31 g ai/ha): 0 | Foxtail, Green plant response rating (green foxtail; 62 g ai/ha): 15 | Plant response rating, Foxtail, Green (green foxtail): 75 | Sandbur plant response rating (sandbur; 16 g ai/ha): 0 | Sandbur plant response rating (sandbur; 31 g ai/ha): 10 | Sandbur plant response rating (sandbur; 62 g ai/ha): 10 | Plant response rating, Sandbur (sandbur): 10 | Kochia plant response rating (kochia; 16 g ai/ha): 0 | Kochia plant response rating (kochia; 31 g ai/ha): 90 | Kochia plant response rating (kochia; 62 g ai/ha): 100 | Plant response rating, Kochia (kochia): 100 | Nutsedge, Yellow plant response rating (yellow nutsedge; 16 g ai/ha): 0 | Nutsedge, Yellow plant response rating (yellow nutsedge; 31 g ai/ha): 0 | Nutsedge, Yellow plant response rating (yellow nutsedge; 62 g ai/ha): 0 | Plant response rating, Nutsedge, Yellow (yellow nutsedge): 20
